Data published in patent publication US9464086B2, “Crystalline forms of N,N-dicyclopropyl-4-(1,5-dimethyl-1 H-pyrazol-3-ylamino)-6-ethyl-1-methyl-1,6-dihydroimidazo[4,5-D]pyrrolo[2,3-B]pyridine-7-carboxamide for the treatment of myeloproliferative disorders” (BRISTOL-MYERS SQUIBB COMPANY, priority 2013, dated 2016).

Columns and labels:
Type in all cases: physicochemical
[1] = Stability of the crystalline form under accelerated conditions of temperature and humidity; details: solid form; up to 4 weeks
Excerpt: (§1) As previously noted, the N-2 form was selected due to a number of properties including chemical/physical stability, reproducibility and hygroscopicity.

[2] = Stability of milled API under high humidity and temperature open dish conditions; details: up to 2 weeks, 25° C./60% RH and 40° C./75% RH open
Excerpt: as §1

[3] = Stability on exposure to UV/HIL; details: solid form; 4 days
Excerpt: as §1

CCn1c(C(=O)N(C2CC2)C2CC2)cc2c3c(ncn3C)c(Nc3cc(C)n(C)n3)nc21 [Form N-2, N,N-dicyclopropyl-4-(1,5-dimethyl-1H-pyrazol-3-ylamino)-6-ethyl-1-methyl-1,6-dihydroimidazo[4,5-d]pyrrolo[2,3-b]pyridine-7-carboxamide]
stable: stability under accelerated conditions of temperature and humidity [1] | stability under high humidity and temperature open dish conditions [2] | stability on exposure to UV/HIL [3]
